Source: patent publication US20070043049A1, “Substituted heterocyclic diarylamine analogues” (Neurogen Corporation, priority 2003, published 2007)

Target: T1, human capsaicin receptor (Homo sapiens, UniProt Q8NER1)
T1 construct: pBK-CMV expression construct encoding the full length human capsaicin receptor; expressed in transfected cells
Test: Calcium mobilization assay, determination of antagonist activity (Example 6)
Format: cell-based
Settings: 50% decrease in fluorescence response of cells expressing human capsaicin receptor exposed to capsaicin
Method: A cDNA encoding full length human capsaicin receptor (SEQ ID NO:1, 2 or 3 of U.S. Pat. No. 6,482,611) was subcloned in the plasmid pBK-CMV (Stratagene, La Jolla, Calif.) for recombinant expression in mammalian cells.
Human embryonic kidney (HEK293) cells were transfected with the pBK-CMV expression construct encoding the full length human capsaicin receptor using standard methods. The transfected cells were selected for two weeks in media containing G418 (400 μg/ml) to obtain a pool of stably transfected cells. Independent clones were isolated from this pool by limiting dilution to obtain clonal stable cell lines for use in subsequent experiments.
Cells transfected with expression plasmids (as described in Example 4) and thereby expressing human capsaicin receptor are seeded and grown to 70-90% confluency in FALCON black-walled, clear-bottomed 96-well plates (#3904, BECTON-DICKINSON, Franklin Lakes, N.J.). The culture medium is emptied from the 96 well plates and FLUO-3 AM calcium sensitive dye (Molecular Probes, Eugene, Oreg.) is added to each well (dye solution: 1 mg FLUO-3 AM, 440 μL DMSO and 440 μl 20% pluronic acid in DMSO, diluted 1:250 in Krebs-Ringer HEPES (KRH) buffer (25 mM HEPES, 5 mM KCl, 0.96 mM NaH2PO4, 1 mM MgSO4, 2 mM CaCl2, 5 mM glucose, 1 mM probenecid, pH 7.4), 50 μl diluted solution per well). Plates are covered with aluminum foil and incubated at 37° C. for 1-2 hours in an environment containing 5% CO2. After the incubation, the dye is emptied from the plates, and the cells are washed once with KRH buffer, and resuspended in KRH buffer.
To measure the ability of a test compound to agonize or antagonize a calcium mobilization response in cells expressing capsaicin receptors to capsaicin or other vanilloid agonist, the EC50 of the agonist capsaicin is first determined. An additional 20 μl of KRH buffer and 1 μl DMSO is added to each well of cells, prepared as described above. 100 μl capsaicin in KRH buffer is automatically transferred by the FLIPR instrument to each well. Capsaicin-induced calcium mobilization is monitored using either FLUOROSKAN ASCENT (Labsystems; Franklin, Mass.) or FLIPR (fluorometric imaging plate reader system; Molecular Devices, Sunnyvale, Calif.) instruments. Data obtained between 30 and 60 seconds after agonist application are used to generate an 8-point concentration response curve, with final capsaicin concentrations of 1 nM to 3 μM. KALEIDAGRAPH software (Synergy Software, Reading, Pa.) is used to fit the data to the equation: y=a*(1/(1+(b/x)^c)) to determine the 50% excitatory concentration (EC50) for the response. In this equation, y is the maximum fluorescence signal, x is the concentration of the agonist or antagonist (in this case, capsaicin), a is the Emax, b corresponds to the EC50 value and c is the Hill coefficient. Determination of Agonist Activity
Test compounds are dissolved in DMSO, diluted in 20 μl KRH buffer so that the final concentration of test compounds in the assay well is between 1 μM and 5 μM, and added to cells prepared as described above. The 96 well plates containing prepared cells and test compounds are incubated in the dark, at room temperature for 0.5 to 6 hours. It is important that the incubation not continue beyond 6 hours. Just prior to determining the fluorescence response, 100 μl capsaicin in KRH buffer at twice the EC50 concentration determined as described above is automatically added by the FLIPR instrument to each well of the 96 well plate for a final sample volume of 200 μl and a final capsaicin concentration equal to the EC50. The final concentration of test compounds in the assay wells is between 1 μM and […]. […] The concentration of antagonist required to provide a 50% decrease, relative to the response observed in the presence of capsaicin and without antagonist, is the IC50 for the antagonist, and is preferably below 1 micromolar, 100 nanomolar, 10 nanomolar or 1 nanomolar.

T1 sequence (Q8NER1 whole entry): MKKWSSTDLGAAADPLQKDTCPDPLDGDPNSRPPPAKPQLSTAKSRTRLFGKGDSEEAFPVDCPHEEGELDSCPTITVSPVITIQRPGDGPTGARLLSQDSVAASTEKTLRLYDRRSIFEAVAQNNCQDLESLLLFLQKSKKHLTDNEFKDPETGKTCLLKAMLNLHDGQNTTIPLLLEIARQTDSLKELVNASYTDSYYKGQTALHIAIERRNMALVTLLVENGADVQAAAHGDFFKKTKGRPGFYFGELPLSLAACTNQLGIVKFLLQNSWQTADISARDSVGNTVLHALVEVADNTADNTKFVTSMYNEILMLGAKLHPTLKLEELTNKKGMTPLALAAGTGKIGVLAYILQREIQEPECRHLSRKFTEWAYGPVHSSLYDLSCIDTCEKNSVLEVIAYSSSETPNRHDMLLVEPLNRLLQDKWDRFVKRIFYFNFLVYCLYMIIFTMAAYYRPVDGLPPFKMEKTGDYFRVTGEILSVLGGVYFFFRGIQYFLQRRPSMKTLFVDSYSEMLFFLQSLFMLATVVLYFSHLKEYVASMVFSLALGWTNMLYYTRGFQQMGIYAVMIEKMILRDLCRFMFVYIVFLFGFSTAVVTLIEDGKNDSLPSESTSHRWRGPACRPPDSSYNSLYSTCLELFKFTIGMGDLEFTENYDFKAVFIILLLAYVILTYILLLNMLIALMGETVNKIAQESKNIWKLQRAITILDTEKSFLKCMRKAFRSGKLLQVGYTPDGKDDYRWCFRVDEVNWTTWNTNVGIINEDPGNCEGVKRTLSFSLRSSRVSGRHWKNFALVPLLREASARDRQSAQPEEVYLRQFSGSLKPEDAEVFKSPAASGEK

SMILES | IC50 [µM]
CCCNc1nc(Nc2ccc(C(F)(F)F)cc2)nc(N2CCN(c3ncccc3Cl)C[C@H]2C)n1 [Compound 22, 6-[4-(3-Chloro-pyridin-2-yl)-2-methyl-piperazin-1-yl]-N-propyl-N′-(4-trifluoromethyl-phenyl)-[1,3,5]triazine-2,4-diamine (R)] | ≤ 1
FC(F)(F)c1ccc(Nc2nc(N3CCOCC3)nc(N3CCN(c4ncccc4C(F)(F)F)CC3)n2)cc1 [Compound 23, {4-Morpholin-4-yl-6-[4-(3-trifluoromethyl-pyridin-2-yl)-piperazin-1-yl]-[1,3,5]triazin-2-yl}-(4-trifluoromethyl-phenyl)-amine] | ≤ 1
C[C@@H]1CN(c2ncccc2Cl)CCN1c1nc(Cl)nc(Nc2ccc(C(F)(C(F)(F)F)C(F)(F)F)cc2)n1 [Compound 24, {4-Chloro-6-[4-(3-chloro-pyridin-2-yl)-2-methyl-piperazin-1-yl]-[1,3,5]triazin-2-yl}-[4-(1,2,2,2-tetrafluoro-1-trifluoromethyl-ethyl)-phenyl]-amine (R)] | ≤ 1
CCCNc1nc(Nc2ccc(C(F)(C(F)(F)F)C(F)(F)F)cc2)nc(N2CCN(c3ncccc3Cl)C[C@H]2C)n1 [Compound 25, 6-[4-(3-Chloro-pyridin-2-yl)-2-methyl-piperazin-1-yl]-N-propyl-N′-[4-(1,2,2,2-tetrafluoro-1-trifluoromethyl-ethyl)-phenyl]-[1,3,5]triazine-2,4-diamine (R)] | ≤ 1
CC(C)CNc1nc(Nc2ccc(C(F)(C(F)(F)F)C(F)(F)F)cc2)nc(N2CCN(c3ncccc3Cl)C[C@H]2C)n1 [Compound 26, 6-[4-(3-Chloro-pyridin-2-yl)-2-methyl-piperazin-1-yl]-N-isobutyl-N′-[4-(1,2,2,2-tetrafluoro-1-trifluoromethyl-ethyl)-phenyl]-[1,3,5]triazine-2,4-diamine (R)] | ≤ 1
CCC(C)Nc1nc(Nc2ccc(C(F)(C(F)(F)F)C(F)(F)F)cc2)nc(N2CCN(c3ncccc3Cl)C[C@H]2C)n1 (stereo partly drawn) [Compound 27, N-sec-Butyl-6-[4-(3-chloro-pyridin-2-yl)-2-methyl-piperazin-1-yl]-N′-[4-(1,2,2,2-tetrafluoro-1-trifluoromethyl-ethyl)-phenyl]-[1,3,5]triazine-2,4-diamine (R)] | ≤ 1
CCCN(C)c1nc(Nc2ccc(C(F)(F)F)cc2)nc(N2CCN(c3ncccc3Cl)C[C@H]2C)n1 [Compound 30, 6-[4-(3-Chloro-pyridin-2-yl)-2-methyl-piperazin-1-yl]-N-methyl-N-propyl-N′-(4-trifluoromethyl-phenyl)-[1,3,5]triazine-2,4-diamine (R)] | ≤ 1
CCCCN(C)c1nc(Nc2ccc(C(F)(F)F)cc2)nc(N2CCN(c3ncccc3Cl)C[C@H]2C)n1 [Compound 31, N-Butyl-6-[4-(3-chloro-pyridin-2-yl)-2-methyl-piperazin-1-yl]-N-methyl-N′-(4-trifluoromethyl-phenyl)-[1,3,5]triazine-2,4-diamine (R)] | ≤ 1
C=CCN(CC=C)c1nc(Nc2ccc(C(F)(F)F)cc2)nc(N2CCN(c3ncccc3Cl)C[C@H]2C)n1 [Compound 32, N,N-Diallyl-6-[4-(3-chloro-pyridin-2-yl)-2-methyl-piperazin-1-yl]-N′-(4-trifluoromethyl-phenyl)-[1,3,5]triazine-2,4-diamine (R)] | ≤ 1
CCCN(CCC)c1nc(Nc2ccc(C(F)(F)F)cc2)nc(N2CCN(c3ncccc3Cl)C[C@H]2C)n1 [Compound 33, 6-[4-(3-Chloro-pyridin-2-yl)-2-methyl-piperazin-1-yl]-N,N-dipropyl-N′-(4-trifluoromethyl-phenyl)-[1,3,5]triazine-2,4-diamine (R)] | ≤ 1
CCCCN(CCCC)c1nc(Nc2ccc(C(F)(F)F)cc2)nc(N2CCN(c3ncccc3Cl)C[C@H]2C)n1 [Compound 34, N,N-Dibutyl-6-[4-(3-chloro-pyridin-2-yl)-2-methyl-piperazin-1-yl]-N′-(4-trifluoromethyl-phenyl)-[1,3,5]triazine-2,4-diamine (R)] | ≤ 1
CC(C)N(C)c1nc(Nc2ccc(C(F)(F)F)cc2)nc(N2CCN(c3ncccc3Cl)C[C@H]2C)n1 [Compound 35, 6-[4-(3-Chloro-pyridin-2-yl)-2-methyl-piperazin-1-yl]-N-isopropyl-N-methyl-N′-(4-trifluoromethyl-phenyl)-[1,3,5]triazine-2,4-diamine (R)] | ≤ 1
C[C@@H]1CN(c2ncccc2Cl)CCN1c1nc(NCc2cccc(C(F)(F)F)c2)nc(Nc2ccc(C(F)(F)F)cc2)n1 [Compound 37, 6-[4-(3-Chloro-pyridin-2-yl)-2-methyl-piperazin-1-yl]-N-(3-trifluoromethyl-benzyl)-N′-(4-trifluoromethyl-phenyl)-[1,3,5]triazine-2,4-diamine (R)] | ≤ 1
C[C@@H]1CN(c2ncccc2Cl)CCN1c1nc(NCc2ccccc2)nc(Nc2ccc(C(F)(F)F)cc2)n1 [Compound 38, N-Benzyl-6-[4-(3-chloro-pyridin-2-yl)-2-methyl-piperazin-1-yl]-N′-(4-trifluoromethyl-phenyl)-[1,3,5]triazine-2,4-diamine (R)] | ≤ 1
CC(C)CCNc1nc(Nc2ccc(C(F)(F)F)cc2)nc(N2CCN(c3ncccc3Cl)C[C@H]2C)n1 [Compound 39, 6-[4-(3-Chloro-pyridin-2-yl)-2-methyl-piperazin-1-yl]-N-(3-methyl-butyl)-N′-(4-trifluoromethyl-phenyl)-[1,3,5]triazine-2,4-diamine (R)] | ≤ 1
CC(C)CNc1nc(Nc2ccc(C(F)(F)F)cc2)nc(N2CCN(c3ncccc3Cl)C[C@H]2C)n1 [Compound 40, 6-[4-(3-Chloro-pyridin-2-yl)-2-methyl-piperazin-1-yl]-N-isobutyl-N′-(4-trifluoromethyl-phenyl)-[1,3,5]triazine-2,4-diamine (R)] | ≤ 1
C[C@@H]1CN(c2ncccc2Cl)CCN1c1nc(NCCCc2ccccc2)nc(Nc2ccc(C(F)(F)F)cc2)n1 [Compound 41, 6-[4-(3-Chloro-pyridin-2-yl)-2-methyl-piperazin-1-yl]-N-(3-phenyl-propyl)-N′-(4-trifluoromethyl-phenyl)-[1,3,5]triazine-2,4-diamine (R)] | ≤ 1
CN(C)c1nc(Nc2ccc(C(F)(F)F)cc2)nc(N2CCN(c3ccccc3)CC2)n1 [Compound 42, N,N-Dimethyl-6-(4-phenyl-piperazin-1-yl)-N′-(4-trifluoromethyl-phenyl)-[1,3,5]triazine-2,4-diamine] | ≤ 1
CN(C)c1nc(Nc2ccc(C(F)(F)F)cc2)nc(N2CCN(c3ccccn3)CC2)n1 [Compound 43, N,N-Dimethyl-6-(4-pyridin-2-yl-piperazin-1-yl)-N′-(4-trifluoromethyl-phenyl)-[1,3,5]triazine-2,4-diamine] | ≤ 1
CN(C)c1nc(Nc2ccc(C(F)(F)F)cc2)nc(N2CCN(c3ncccc3Cl)CC2)n1 [Compound 44, 6-[4-(3-Chloro-pyridin-2-yl)-piperazin-1-yl]-N,N-dimethyl-N′-(4-trifluoromethyl-phenyl)-[1,3,5]triazine-2,4-diamine] | ≤ 1
FC(F)(F)c1ccc(Nc2nc(Cl)nc(N3CCN(c4ncccc4Cl)CC3)n2)cc1 [Compound 45, {4-Chloro-6-[4-(3-chloro-pyridin-2-yl)-piperazin-1-yl]-[1,3,5]triazin-2-yl}-(4-trifluoromethyl-phenyl)-amine] | ≤ 1
CNc1nc(Nc2ccc(C(F)(F)F)cc2)nc(N2CCN(c3ncccc3Cl)CC2)n1 [Compound 46, 6-[4-(3-Chloro-pyridin-2-yl)-piperazin-1-yl]-N-methyl-N′-(4-trifluoromethyl-phenyl)-[1,3,5]triazine-2,4-diamine] | ≤ 1
